This passage reports IC50 results from ChEMBL document CHEMBL1938264, “Novel 3,4-isoxazolediamides as potent inhibitors of chaperone heat shock protein 90” (J Med Chem, 2011).

The subject of assay [1] is NCI-H460. Nature of the assay: Cytotoxicity against human NCI-H460 after 72 hrs by sulforhodamine B assay. The class given is functional, cell-based. Particulars: NCI-H460, 72 h. Background: Sulforhodamine B stains cellular protein and so reports cell mass.
For assay [2], the target named is Heat shock protein HSP 90-beta (Homo sapiens, UniProt P08238). Nature of the assay: Binding affinity to Hsp90 after 4 hrs by fluorescence polarization assay. (Fluorescence polarisation rises when a labelled molecule tumbles more slowly, as on binding a larger partner.)
Chain of Heat shock protein HSP 90-beta (P08238 whole entry): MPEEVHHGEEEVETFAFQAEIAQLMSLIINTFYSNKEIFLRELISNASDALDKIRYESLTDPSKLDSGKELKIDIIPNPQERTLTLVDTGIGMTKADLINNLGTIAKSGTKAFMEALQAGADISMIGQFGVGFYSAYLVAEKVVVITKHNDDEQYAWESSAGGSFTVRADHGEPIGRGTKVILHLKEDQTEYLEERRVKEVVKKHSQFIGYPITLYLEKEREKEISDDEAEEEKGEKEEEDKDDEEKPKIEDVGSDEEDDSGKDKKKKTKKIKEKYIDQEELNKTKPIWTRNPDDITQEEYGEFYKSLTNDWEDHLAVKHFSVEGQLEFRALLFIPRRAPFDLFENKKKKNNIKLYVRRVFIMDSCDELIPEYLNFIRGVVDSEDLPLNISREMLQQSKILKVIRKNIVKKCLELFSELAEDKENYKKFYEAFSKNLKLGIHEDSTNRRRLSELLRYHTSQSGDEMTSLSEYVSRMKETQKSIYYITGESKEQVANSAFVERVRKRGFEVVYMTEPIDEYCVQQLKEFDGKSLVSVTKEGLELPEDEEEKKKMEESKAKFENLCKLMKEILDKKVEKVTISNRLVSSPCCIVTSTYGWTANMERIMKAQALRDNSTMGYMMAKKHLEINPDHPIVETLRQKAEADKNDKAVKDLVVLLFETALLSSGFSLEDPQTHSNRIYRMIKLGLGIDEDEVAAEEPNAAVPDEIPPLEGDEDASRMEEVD

`CCNC(=O)c1noc(-c2cc(Cl)c(O)cc2O)c1NC(=O)C(C)(C)C`: the IC50 in assay [1] was 310 nM; in assay [2] it was 85 nM.
Take `CCNC(=O)c1noc(-c2cc(Cl)c(O)cc2O)c1NC(C)=O`: the IC50 in assay [1] is greater than 1000 nM; in assay [2] it was 37 nM.
Taken in the same sequence, the figures for `CCNC(=O)c1noc(-c2cc(C(C)C)c(O)cc2O)c1NC(=O)[C@@H]1CC[C@H](CO)C1` (relative stereo) were greater than 260 nM and 12.6 nM.
With `CCNC(=O)c1noc(-c2cc(C(C)C)c(O)cc2O)c1NC(=O)c1cc(-c2ccccc2)on1`, the values for the IC50 in assay [1] and in assay [2] were greater than 1000 nM and 250 nM, respectively.
Turning to `CCNC(=O)c1noc(-c2cc(C(C)C)c(O)cc2O)c1NC(=O)[C@H]1CC[C@H](CN)CC1`, the 50% inhibitory concentration (IC50) in assay [1] was greater than 1000 nM; in assay [2] it was 40 nM.
Take `CCNC(=O)c1noc(-c2cc(Cl)c(O)cc2O)c1NC(=O)c1sccc1C`: the IC50 stood at 410 nM in assay [1] and 74 nM in assay [2].
In the case of `CCNC(=O)c1noc(-c2cc(C(C)C)c(O)cc2O)c1NC(=O)CCN1CCN(C)CC1`, the IC50 in assay [1] was greater than 1000 nM; in assay [2], 120 nM.
As to `CCNC(=O)c1noc(-c2cc(C(C)C)c(O)cc2O)c1NC(=O)[C@H]1CC[C@H](N)CC1`, the IC50 in assay [1] is greater than 1000 nM; in assay [2], 28 nM.
For `CCNC(=O)c1noc(-c2cc(C(C)C)c(O)cc2O)c1NC(=O)c1ccco1`, the IC50 in assay [1] was 22 nM; in assay [2], less than 5 nM.
For the compound `CCNC(=O)c1noc(-c2cc(C(C)C)c(O)cc2O)c1NC(=O)[C@H]1CC[C@H](CN2CCOCC2)CC1`, the 50% inhibitory concentration (IC50) was 130 nM in assay [1] and 8.8 nM in assay [2].
With `CCNC(=O)c1noc(-c2cc(C(C)C)c(O)cc2O)c1NC(=O)[C@@H]1CC[C@H](C(=O)OC)C1`, the IC50 is 22 nM in assay [1] and less than 5 nM in assay [2].
For the compound `CCNC(=O)c1noc(-c2cc(C(C)C)c(O)cc2O)c1NC(=O)c1cc(C(C)=O)on1`, the values for the IC50 in assay [1] and in assay [2] were 82 nM and 19 nM, respectively.
For the compound `CCNC(=O)c1noc(-c2cc(C(C)C)c(O)cc2O)c1NC(=O)c1ccc2ncoc2c1`, the IC50 in assay [1] came out at 110 nM; in assay [2], 15 nM.
Consider `CCNC(=O)c1noc(-c2cc(C(C)C)c(O)cc2O)c1NC(=O)[C@H]1CC[C@H](OC(=O)CN)CC1`, for which the IC50 was greater than 1000 nM in assay [1] and less than 5 nM in assay [2].
With `CCNC(=O)c1noc(-c2cc(Cl)c(O)cc2O)c1NC(=O)c1ccc(OC)cc1`, the IC50 in assay [1] is greater than 1000 nM; in assay [2] it was 184 nM.
On to `CCNC(=O)c1noc(-c2cc(Cl)c(O)cc2O)c1NC(=O)C12CC3CC(CC(C3)C1)C2`, for which the half-maximal inhibitory concentration (IC50) in assay [1] is 750 nM; in assay [2], 250 nM.
Turning to `CCNC(=O)c1noc(-c2cc(C(C)C)c(O)cc2O)c1NC(=O)c1sc(-c2ccncc2)nc1C`, the IC50 in assay [1] is greater than 1000 nM; in assay [2] it was 27 nM.
Consider `CCNC(=O)c1noc(-c2cc(C(C)C)c(O)cc2O)c1NC(=O)c1oc2ccc(OC)cc2c1C`, for which the IC50 in assay [1] was determined as 750 nM; in assay [2], 48 nM.
Taken in the same sequence, the figures for `CCNC(=O)c1noc(-c2cc(C(C)C)c(O)cc2O)c1NC(=O)[C@H]1CC[C@H](O)CC1` were greater than 1000 nM and less than 5 nM.
As to `CCNC(=O)c1noc(-c2cc(C(C)C)c(O)cc2O)c1NC(=O)[C@H]1CC[C@H](CO)CC1`, the half-inhibitory concentration (IC50) in assay [1] is 600 nM; in assay [2], less than 5 nM.
Taken in the same sequence, the figures for `CCNC(=O)c1noc(-c2cc(C(C)C)c(O)cc2O)c1NC(=O)c1oc2ccccc2c1C` were greater than 1000 nM and 260 nM.
For `CCNC(=O)c1noc(-c2cc(C(C)C)c(O)cc2O)c1NC(C)=O`, the IC50 in assay [1] worked out at 81 nM; in assay [2] it was 55 nM.
For `CCNC(=O)c1noc(-c2cc(C(C)C)c(O)cc2O)c1NC(=O)c1ccc(N2CCN(C)CC2)cc1`, in that order: greater than 1000 nM and 24 nM.
With `CCNC(=O)c1cc(C(=O)Nc2c(C(=O)NCC)noc2-c2cc(C(C)C)c(O)cc2O)on1`, the IC50 in assay [1] was greater than 1000 nM; in assay [2] it was 24 nM.
With `CCNC(=O)c1noc(-c2cc(C(C)C)c(O)cc2O)c1NC(=O)c1ccc(Br)o1`, the values for the IC50 in assay [1] and in assay [2] were 19 nM and 22 nM, respectively.
Take `CCNC(=O)c1noc(-c2cc(C(C)C)c(O)cc2O)c1NC(=O)[C@H]1CC[C@H](CNS(=O)(=O)c2ccccc2)CC1`: the IC50 is greater than 1000 nM in assay [1] and less than 5 nM in assay [2].
For the compound `CCNC(=O)c1noc(-c2cc(C(C)C)c(O)cc2O)c1NC(=O)c1ccc2ccsc2c1`, the half-inhibitory concentration (IC50) was 180 nM in assay [1] and 20 nM in assay [2].
With `CCNC(=O)c1noc(-c2cc(C(C)C)c(O)cc2O)c1NC(=O)C1CCC(C(C)(C)C)CC1` (centres undefined), the IC50 turned out to be 200 nM in assay [1] and 30 nM in assay [2].
As to `CCNC(=O)c1noc(-c2cc(C(C)C)c(O)cc2O)c1NC(=O)[C@H]1CC[C@H](C(N)=O)CC1`, the IC50 in assay [1] is greater than 1000 nM; in assay [2] it was less than 5 nM.
Taken in the same sequence, the figures for `CCNC(=O)c1noc(-c2cc(C(C)C)c(O)cc2O)c1NC(=O)c1ccc(N2CCNCC2)cc1` were greater than 1000 nM and 32 nM.
Regarding `CCNC(=O)c1noc(-c2cc(C(C)C)c(O)cc2O)c1NC(=O)c1ccc2cc[nH]c2c1`, the half-inhibitory concentration (IC50) in assay [1] amounted to 170 nM; in assay [2], 33 nM.
Consider `COc1ccc(C(=O)Nc2c(C(=O)NCC(F)(F)F)noc2-c2cc(Cl)c(O)cc2O)cc1`, for which the values for the IC50 in assay [1] and in assay [2] were greater than 1000 nM and 160 nM, respectively.
`CCNC(=O)c1noc(-c2cc(C(C)C)c(O)cc2O)c1NC(=O)c1nc(C)c(-c2ccc(F)cc2)s1`: the IC50 was greater than 1000 nM in assay [1] and 40 nM in assay [2].
`CCNC(=O)c1noc(-c2cc(C(C)C)c(O)cc2O)c1NC(=O)[C@@H]1CC[C@H](C(=O)O)C1`: the values for the IC50 in assay [1] and in assay [2] were greater than 1000 nM and 39 nM, respectively.
Turning to `CCNC(=O)c1noc(-c2cc(C(C)C)c(O)cc2O)c1NC(=O)c1ccc(N(C)C)cc1`, the IC50 in assay [1] came out at 240 nM; in assay [2] it was 34 nM.
On to `CCNC(=O)c1noc(-c2cc(C(C)C)c(O)cc2O)c1NC(=O)C1CC(O)C1` (centres undefined), for which the IC50 is 920 nM in assay [1] and 14 nM in assay [2].
As for `CCNC(=O)c1noc(-c2cc(C(C)C)c(O)cc2O)c1NC(=O)[C@H]1CC[C@@H](N2CCOCC2)CC1`, the IC50 in assay [1] amounted to 610 nM; in assay [2], 7.4 nM.
In the case of `CCNC(=O)c1noc(-c2cc(C(C)C)c(O)cc2O)c1NC(=O)CCN1CCOCC1`, the figures for the IC50 in assay [1] and in assay [2] were 110 nM and 214 nM, respectively.
As to `CCNC(=O)c1noc(-c2cc(C(C)C)c(O)cc2O)c1NC(=O)[C@H]1CC[C@@H](CN2CCOCC2)CC1`, the values for the half-maximal inhibitory concentration (IC50) in assay [1] and in assay [2] were 140 nM and 19.6 nM, respectively.
As for `CCNC(=O)c1noc(-c2cc(Cl)c(O)cc2O)c1NC(=O)c1ccc(Br)cc1`, the IC50 in assay [1] was greater than 1000 nM; in assay [2] it was 153 nM.
Take `CCNC(=O)c1noc(-c2cc(C(C)C)c(O)cc2O)c1NC(=O)c1ccc2ccn(C)c2c1`: the IC50 was determined as 87 nM in assay [1] and 34 nM in assay [2].
For the compound `CCNC(=O)c1noc(-c2cc(C(C)C)c(O)cc2O)c1NC(=O)[C@H]1CC[C@@H](C(N)=O)CC1`, the IC50 in assay [1] is 990 nM; in assay [2] it was less than 5 nM.
For `CCNC(=O)c1noc(-c2cc(C(C)C)c(O)cc2O)c1NC(=O)[C@@H]1CC[C@H](CN2CCOCC2)C1` (relative stereo), the IC50 came out at 170 nM in assay [1] and 12 nM in assay [2].
Taken in the same sequence, the figures for `CCNC(=O)c1noc(-c2cc(C(C)C)c(O)cc2O)c1NC(=O)c1ccc(OC)c(F)c1` were 55 nM and 34 nM.
For `CCNC(=O)c1noc(-c2cc(Cl)c(O)cc2O)c1NC(=O)c1cc(OC)c(OC)c(OC)c1`, the IC50 in assay [1] is greater than 1000 nM; in assay [2], 130 nM.
Consider `C=CC(=O)Nc1c(C(=O)NCC)noc1-c1cc(Cl)c(O)cc1O`, for which the IC50 in assay [1] is greater than 1000 nM; in assay [2], 167 nM.
Turning to `CCCCC[C@H]1CC[C@H](C(=O)Nc2c(C(=O)NCC)noc2-c2cc(C(C)C)c(O)cc2O)CC1`, the values for the IC50 in assay [1] and in assay [2] were greater than 1000 nM and 260 nM, respectively.
Taken in the same sequence, the figures for `CCNC(=O)c1noc(-c2cc(Cl)c(O)cc2O)c1NCc1ccc(OC)cc1` were greater than 1000 nM and 430 nM.
Taken in the same sequence, the figures for `CCNC(=O)c1noc(-c2cc(C(C)C)c(O)cc2O)c1NC(=O)C1CCC(C(F)(F)F)CC1` (centres undefined) were 42 nM and 240 nM.
Taken in the same sequence, the figures for `CCNC(=O)c1noc(-c2cc(C(C)C)c(O)cc2O)c1NC(=O)c1cccc2cccnc12` were 490 nM and 36 nM.
For the compound `CCNC(=O)c1noc(-c2cc(C(C)C)c(O)cc2O)c1NC(=O)c1ccc(OC)cc1`, the IC50 amounted to 17 nM in assay [1] and 26 nM in assay [2].
Consider `CCNC(=O)c1noc(-c2cc(Cl)c(O)cc2O)c1NC(=O)c1ccc(OC)c(OC)c1`, for which the IC50 is greater than 1000 nM in assay [1] and 163 nM in assay [2].
Turning to `CCNC(=O)c1noc(-c2cc(C(C)C)c(O)cc2O)c1NC(=O)[C@H]1CC[C@@H](CO)CC1`, the IC50 in assay [1] was determined as 870 nM; in assay [2], 15 nM.
`CCNC(=O)c1noc(-c2cc(C(C)C)c(O)cc2O)c1NC(=O)C1CCN(C)CC1`: the IC50 in assay [1] is greater than 1000 nM; in assay [2], 24 nM.
For the compound `CCNC(=O)c1noc(-c2cc(Cl)c(O)cc2O)c1NCc1sccc1C`, the IC50 in assay [1] was greater than 1000 nM; in assay [2], 230 nM.
For `CCNC(=O)c1noc(-c2cc(Cl)c(O)cc2O)c1NC(=O)CCN1CCOCC1`, in that order: 130 nM and 168 nM.
On to `CCNC(=O)c1noc(-c2cc(C(C)C)c(O)cc2O)c1NC(=O)c1ccc(N2CCCC2)cc1`, for which the figures for the IC50 in assay [1] and in assay [2] were 810 nM and 22 nM, respectively.
For `CCNC(=O)c1noc(-c2cc(Cl)c(O)cc2O)c1NC1CCCCC1`, in that order: greater than 1000 nM and 620 nM.
For `CCNC(=O)c1noc(-c2cc(C(C)C)c(O)cc2O)c1NC(=O)c1ccc(C)o1`, the values for the IC50 in assay [1] and in assay [2] were 16 nM and less than 5 nM, respectively.
Consider `CCNC(=O)c1noc(-c2cc(C(C)C)c(O)cc2O)c1NC(=O)c1cc2ccccc2n1C`, for which the results for the IC50 in assay [1] and in assay [2] were 360 nM and 62 nM, respectively.
Turning to `CCNC(=O)c1noc(-c2cc(C(C)C)c(O)cc2O)c1NC(=O)C1CCNCC1`, the half-maximal inhibitory concentration (IC50) was greater than 1000 nM in assay [1] and less than 5 nM in assay [2].
With `CCNC(=O)c1noc(-c2cc(C(C)C)c(O)cc2O)c1NC(=O)c1ccc(-n2cccc2)cc1`, the IC50 is greater than 1000 nM in assay [1] and 32 nM in assay [2].

What is called IC50 is the concentration that gives 50% inhibition.
